Measurements as given in ChEMBL document CHEMBL1144631, “Synthesis and biological evaluation of nucleoside analogues having 6-chloropurine as anti-SARS-CoV agents” (Bioorg Med Chem Lett, 2007).
Calls of active or inactive are those of the source. The calls are words filed in the database; no cut-off is given here.

Columns and labels:
SARS-CoV [1] = test: microbe, parasite or virus in culture; conditions: Severe acute respiratory syndrome-related coronavirus, Frankfurt1, Vero
in vitro = conditions: chlorocebus sabaeus, Vero E6 cells
SARS-CoV [2] = assay type: functional, organism-based; conditions: Severe acute respiratory syndrome-related coronavirus; Frankfurt1; Vero; 50 to 70 uM
Vero = conditions: chlorocebus sabaeus
SARS-CoV [3] = assay type: functional, organism-based; conditions: Severe acute respiratory syndrome-related coronavirus; Frankfurt1; Vero; 20 uM

With `OCC(CCn1cnc2c(Cl)ncnc21)COCc1ccccc1` (stereo not given) the IC50 (SARS-CoV [1]) was > 300 µM.
For `OCC1C(COCc2ccccc2)CC1n1cnc2c(Cl)ncnc21` (stereo not given), the CC50 (in vitro) was 78 µM, the IC50 (SARS-CoV [1]) was 14.5 µM and the Activity (SARS-CoV [2]) was “Active”.
With `OCC(CO)CCn1cnc2c(Cl)ncnc21` the IC50 (SARS-CoV [1]) was > 300 µM.
With `CSc1ncnc2c1ncn2[C@@H]1O[C@H](CO)[C@@H](O)[C@H]1O` the IC50 (SARS-CoV [1]) was > 300 µM.
In the case of `COc1ncnc2c1ncn2[C@@H]1O[C@H](CO)[C@@H](O)[C@H]1O`, the IC50 (SARS-CoV [1]) is reported as > 300 µM.
In the case of `OCC1CC(n2cnc3c(Cl)ncnc32)C1CO` (stereo not given), the IC50 (SARS-CoV [1]) is reported as > 300 µM.
With `O[C@@H]1[C@H](O)[C@@H](COCc2ccccc2)O[C@H]1n1cnc2c(Cl)ncnc21` the CC50 (in vitro) was 174 µM, the IC50 (SARS-CoV [1]) was 108 µM and the Activity (SARS-CoV [2]) was “Active”.
For `NC(=O)c1ncn([C@@H]2O[C@H](CO)[C@@H](O)[C@H]2O)n1` [RIBAVIRIN], the CC50 (in vitro) was > 850 µM and the IC50 (SARS-CoV [1]) was 82 µM.
With `OC[C@H]1O[C@@H](n2cnc3c(Cl)ncnc32)C[C@@H]1O` the IC50 (SARS-CoV [1]) was > 300 µM.
With `NC(=O)c1ncn([C@@H]2O[C@H](CO)[C@@H](O)[C@H]2O)c1O` [MIZORIBINE] the CC50 (in vitro) was > 700 µM and the IC50 (SARS-CoV [1]) was 13.5 µM.
In the case of `OC[C@H]1O[C@@H](n2cnc3c(Cl)ncnc32)[C@H](O)[C@@H]1O`, the CC50 (Vero) is reported as 279 µM and the Activity (SARS-CoV [3]) is reported as “Active”.
With `Nc1nc(Cl)c2ncn([C@@H]3O[C@H](CO)[C@@H](O)[C@H]3O)c2n1` the IC50 (SARS-CoV [1]) was > 300 µM.
In the case of `OC[C@@H]1C[C@@H](O)[C@H](n2cnc3c(Cl)ncnc32)O1`, the IC50 (SARS-CoV [1]) is reported as > 300 µM.
